Key:
sugar beet = assay: Test B pre/postemergence sugar beet; format: in vivo, Beta vulgaris
Procedure, shortened: (§1)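 Test chemicals in a non-phytotoxic solvent mixture with surfactant were sprayed preemergence onto planted seeds and postemergence onto plants 2 to 18 cm tall (1- to 4-leaf stage). After twelve to sixteen days in a greenhouse, injury was visually rated against untreated controls from 0 (no effect) to 10 (complete control).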

cocklebur = assay: Test B pre/postemergence cocklebur; format: in vivo, Xanthium strumarium
Procedure, shortened: as §1

crabgrass = assay: Test B pre/postemergence crabgrass; format: in vivo, Digitaria sanguinalis
Procedure, shortened: as §1

duck salad = assay: Test B flood test duck salad; format: in vivo, Heteranthera limosa
Procedure, shortened: (§2)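 Flood test on plants grown to the 2-leaf stage; treated plants kept in greenhouse twelve to sixteen days, then visually rated against controls on a 0 (no effect) to 10 (complete control) scale.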

velvetleaf = assay: Test B pre/postemergence velvetleaf; format: in vivo, Abutilon theophrasti
Procedure, shortened: as §1

giant foxtail = assay: Test B pre/postemergence giant foxtail; format: in vivo, Setaria faberii
Procedure, shortened: as §1

rape = assay: Test B pre/postemergence rape; format: in vivo, Brassica napus
Procedure, shortened: as §1

purple nutsedge = assay: Test B pre/postemergence purple nutsedge; format: in vivo, Cyperus rotundus
Procedure, shortened: as §1

pigweed = assay: Test B pre/postemergence pigweed; format: in vivo, Amaranthus retroflexus
Procedure, shortened: as §1

rice = assay: Test B flood test rice; format: in vivo, Oryza sativa
Procedure, shortened: as §2

wheat = assay: Test B pre/postemergence wheat; format: in vivo, Triticum aestivum
Procedure, shortened: as §1

bamyardgrass = assay: Test B flood test barnyardgrass; format: in vivo, Echinochloa crus-galli
Procedure, shortened: as §2

surinam grass = assay: Test B pre/postemergence surinam grass; format: in vivo, Brachiaria decumbens
Procedure, shortened: as §1

wild oat = assay: Test B pre/postemergence wild oat; format: in vivo, Avena fatua
Procedure, shortened: as §1

morningglory = assay: Test B pre/postemergence morningglory; format: in vivo, Ipomoea hederacea
Procedure, shortened: as §1

smallflower flatsedge = assay: Test B flood test smallflower flatsedge; format: in vivo, Cyperus difformis
Procedure, shortened: as §2

blackgrass = assay: Test B pre/postemergence blackgrass; format: in vivo, Alopecurus myosuroides
Procedure, shortened: as §1

bedstraw = assay: Test B pre/postemergence bedstraw; format: in vivo, Galium aparine; settings: Postemergence, Rate 125 g/ha; scale of 0 to 10 where 0 is no effect and 10 is complete control
Procedure, shortened: as §1

corn = assay: Test B pre/postemergence corn; format: in vivo, Zea mays
Procedure, shortened: as §1

soybean = assay: Test B pre/postemergence soybean; format: in vivo, Glycine max
Procedure, shortened: as §1

[1] = Postemergence, Rate 62 g/ha, scale 0 to 10, 0 is no effect, 10 is complete control
[2] = Postemergence, Rate 125 g/ha, scale of 0 to 10 where 0 is no effect and 10 is complete control
[3] = Preemergence, Rate 62 g/ha, scale of 0 to 10 where 0 is no effect and 10 is complete control
[4] = Preemergence, Rate 125 g/ha, scale of 0 to 10 where 0 is no effect and 10 is complete control
[5] = Preemergence, Rate 250 g/ha, scale 0 to 10 (0 no effect, 10 complete control)
[6] = Preemergence, Rate 500 g/ha, scale of 0 to 10 where 0 is no effect and 10 is complete control
[7] = Rate 500 g/ha, Postemergence, scale 0 to 10, 0 is no effect, 10 is complete control
[8] = Postemergence, Rate 250 g/ha, scale of 0 to 10, 0 is no effect, 10 is complete control
[9] = Rate 62 g/ha, flood test species, Pre-emergence, visual evaluation after twelve to sixteen days
[10] = Rate 125 g/ha, under heading Pre-emergence, flood test species, visual evaluation after twelve to sixteen days
[11] = Rate 250 g/ha, Pre-emergence (flood test species), scale 0 to 10, 0 is no effect, 10 is complete control
[12] = Rate 500 g/ha, Pre-emergence section of Table B, 0 to 10 scale (0 no effect, 10 complete control)

CC[C@H](C)n1c(=O)on(C(=O)N(c2ccc(F)cc2F)C(C)C)c1=O [Compound 666]
Plant response rating, Sugarbeets (sugar beet; [1]): 0
Sugarbeets plant response rating (sugar beet; [2]): 0
Sugarbeets plant response rating (sugar beet; [3]): 0
Sugarbeets plant response rating (sugar beet; [4]): 4
Plant response rating, Sugarbeets (sugar beet; [5]): 7
Plant response rating, Sugarbeets (sugar beet; [6]): 8
Sugarbeets plant response rating (sugar beet; [7]): 4
Plant response rating, Cocklebur (cocklebur; [1]): 0
Cocklebur plant response rating (cocklebur; [2]): 1
Cocklebur plant response rating (cocklebur; [8]): 4
Cocklebur plant response rating (cocklebur; [3]): 0
Cocklebur plant response rating (cocklebur; [4]): 0
Plant response rating, Cocklebur (cocklebur; [5]): 0
Plant response rating, Cocklebur (cocklebur; [6]): 0
Cocklebur plant response rating (cocklebur; [7]): 7
Plant response rating, Crabgrass (crabgrass; [1]): 3
Crabgrass plant response rating (crabgrass; [2]): 9
Crabgrass plant response rating (crabgrass; [8]): 9
Crabgrass plant response rating (crabgrass; [3]): 7
Crabgrass plant response rating (crabgrass; [4]): 8
Plant response rating, Crabgrass (crabgrass; [5]): 9
Plant response rating, Crabgrass (crabgrass; [6]): 10
Crabgrass plant response rating (crabgrass; [7]): 9
Plant response rating, Ducksalad (0 to 10 scale, 0 is no effect, 10 is complete control) (duck salad; [9]): 0
Ducksalad plant response rating (0 to 10 scale, 0 is no effect, 10 is complete control) (duck salad; [10]): 0
Ducksalad plant response rating (duck salad; [11]): 0
Ducksalad plant response rating (duck salad; [12]): 0
Plant response rating, Velvetleaf (velvetleaf; [1]): 0
Velvetleaf plant response rating (velvetleaf; [2]): 2
Velvetleaf plant response rating (velvetleaf; [3]): 5
Velvetleaf plant response rating (velvetleaf; [4]): 6
Plant response rating, Velvetleaf (velvetleaf; [5]): 7
Plant response rating, Velvetleaf (velvetleaf; [6]): 8
Velvetleaf plant response rating (velvetleaf; [7]): 6
Plant response rating, Giant foxtail (giant foxtail; [1]): 2
Giant foxtail plant response rating (giant foxtail; [2]): 8
Giant foxtail plant response rating (giant foxtail; [8]): 8
Giant foxtail plant response rating (giant foxtail; [3]): 9
Giant foxtail plant response rating (giant foxtail; [4]): 10
Plant response rating, Giant foxtail (giant foxtail; [5]): 10
Plant response rating, Giant foxtail (giant foxtail; [6]): 10
Giant foxtail plant response rating (giant foxtail; [7]): 9
Plant response rating, Rape (rape; [1]): 0
Rape plant response rating (rape; [2]): 0
Rape plant response rating (rape; [3]): 0
Rape plant response rating (rape; [4]): 8
Plant response rating, Rape (rape; [5]): 10
Plant response rating, Rape (rape; [6]): 10
Rape plant response rating (rape; [7]): 4
Plant response rating, Nutsedge (purple nutsedge; [1]): 0
Nutsedge plant response rating (purple nutsedge; [2]): 0
Nutsedge plant response rating (purple nutsedge; [3]): 0
Plant response rating, Nutsedge (purple nutsedge; [5]): 0
Nutsedge plant response rating (purple nutsedge; [7]): 0
Plant response rating, Redroot pigweed (pigweed; [1]): 0
Redroot pigweed plant response rating (pigweed; [2]): 1
Redroot pigweed plant response rating (pigweed; [3]): 8
Redroot pigweed plant response rating (pigweed; [4]): 10
Plant response rating, Redroot pigweed (pigweed; [5]): 10
Plant response rating, Redroot pigweed (pigweed; [6]): 10
Redroot pigweed plant response rating (pigweed; [7]): 6
Plant response rating, Rice (0 to 10 scale, 0 is no effect, 10 is complete control) (rice; [9]): 0
Rice plant response rating (0 to 10 scale, 0 is no effect, 10 is complete control) (rice; [10]): 0
Rice plant response rating (rice; [11]): 0
Rice plant response rating (rice; [12]): 0
Plant response rating, Wheat (wheat; [1]): 0
Wheat plant response rating (wheat; [2]): 0
Wheat plant response rating (wheat; [3]): 0
Wheat plant response rating (wheat; [4]): 3
Plant response rating, Wheat (wheat; [5]): 4
Plant response rating, Wheat (wheat; [6]): 7
Wheat plant response rating (wheat; [7]): 3
Plant response rating, Barnyardgrass (0 to 10 scale, 0 is no effect, 10 is complete control) (bamyardgrass; [9]): 0
Barnyardgrass plant response rating (0 to 10 scale, 0 is no effect, 10 is complete control) (bamyardgrass; [10]): 0
Barnyardgrass plant response rating (bamyardgrass; [11]): 0
Barnyardgrass plant response rating (bamyardgrass; [12]): 5
Plant response rating, B. signalgrass (surinam grass; [1]): 0
Plant response rating, B. signalgrass (surinam grass; [2]): 4
B. signalgrass plant response rating (surinam grass; [8]): 5
B. signalgrass plant response rating (surinam grass; [3]): 2
B. signalgrass plant response rating (surinam grass; [4]): 3
Plant response rating, B. signalgrass (surinam grass; [5]): 7
Plant response rating, B. signalgrass (surinam grass; [6]): 8
B. signalgrass plant response rating (surinam grass; [7]): 7
Plant response rating, Wild oats (wild oat; [1]): 0
Wild oats plant response rating (wild oat; [2]): 0
Wild oats plant response rating (wild oat; [3]): 5
Wild oats plant response rating (wild oat; [4]): 6
Plant response rating, Wild oats (wild oat; [5]): 9
Plant response rating, Wild oats (wild oat; [6]): 9
Wild oats plant response rating (wild oat; [7]): 3
Plant response rating, Morningglory (morningglory; [1]): 0
Morningglory plant response rating (morningglory; [2]): 1
Morningglory plant response rating (morningglory; [8]): 7
Morningglory plant response rating (morningglory; [3]): 0
Morningglory plant response rating (morningglory; [4]): 0
Plant response rating, Morningglory (morningglory; [5]): 0
Plant response rating, Morningglory (morningglory; [6]): 3
Morningglory plant response rating (morningglory; [7]): 7
Plant response rating, S. Flatsedge (0 to 10 scale, 0 is no effect, 10 is complete control) (smallflower flatsedge; [9]): 0
S. Flatsedge plant response rating (0 to 10 scale, 0 is no effect, 10 is complete control) (smallflower flatsedge; [10]): 0
S. Flatsedge plant response rating (smallflower flatsedge; [11]): 0
S. Flatsedge plant response rating (smallflower flatsedge; [12]): 0
Plant response rating, Blackgrass (blackgrass; [1]): 6
Blackgrass plant response rating (blackgrass; [2]): 8
Blackgrass plant response rating (blackgrass; [8]): 8
Blackgrass plant response rating (blackgrass; [3]): 6
Blackgrass plant response rating (blackgrass; [4]): 8
Plant response rating, Blackgrass (blackgrass; [5]): 9
Plant response rating, Blackgrass (blackgrass; [6]): 10
Blackgrass plant response rating (blackgrass; [7]): 8
Bedstraw plant response rating (bedstraw): 0
Plant response rating, Corn (corn; [1]): 0
Corn plant response rating (corn; [2]): 0
Corn plant response rating (corn; [8]): 0
Corn plant response rating (corn; [3]): 0
Corn plant response rating (corn; [4]): 4
Plant response rating, Corn (corn; [5]): 8
Plant response rating, Corn (corn; [6]): 10
Corn plant response rating (corn; [7]): 0
Plant response rating, Soybean (soybean; [1]): 4
Soybean plant response rating (soybean; [2]): 4
Soybean plant response rating (soybean; [3]): 0
Soybean plant response rating (soybean; [4]): 0
Plant response rating, Soybean (soybean; [5]): 3
Plant response rating, Soybean (soybean; [6]): 4

From patent US6737383B1, “Herbicidal oxadiazolidines” (priority 1999, dated 2004)
